Source: patent US12304897B2, “15-PGDH inhibitors” (KYORIN PHARMACEUTICAL CO., LTD., priority 2019, dated 2025)

Biological target: recombinant human 15-PGDH (Homo sapiens (Human), UniProt P15428)
Assay: 15-PGDH enzyme inhibition test
Format: biochemical
Conditions: 4 nM recombinant human 15-PGDH, 30 μM PGE2, 1 mM NAD+, fluorescence 340/440 nm after 60 min
Protocol: 15-PGDH Enzyme Inhibition Test
Test compounds and 4 nM recombinant human 15-PGDH (R&D systems) in 50 mM Tris-HCl (pH 8.0) containing 0.01% TWEEN 20 (Sigma) and 0.01% bovine gamma globulin (Sigma) were put into 384 Flat Bottom Black plates (Corning, 3820) and allowed to stand for 12 minutes at room temperature. Then, 30 μM PGE2 (Cayman chemical) and 1 mM NAD^+ (Sigma) were added to start reaction. Sixty minutes after the start of reaction, signals were measured at an excitation wavelength of 340 nm and a fluorescence emission wavelength of 440 nm using Synergy 2 (BioTeck). The intensity of the fluorescent signal obtained when an assay buffer was added in place of the test compounds and NAD^+ was defined as 100% and that obtained with the addition of NAD^+ was defined as 0%.

Sequence of recombinant human 15-PGDH (P15428 whole entry): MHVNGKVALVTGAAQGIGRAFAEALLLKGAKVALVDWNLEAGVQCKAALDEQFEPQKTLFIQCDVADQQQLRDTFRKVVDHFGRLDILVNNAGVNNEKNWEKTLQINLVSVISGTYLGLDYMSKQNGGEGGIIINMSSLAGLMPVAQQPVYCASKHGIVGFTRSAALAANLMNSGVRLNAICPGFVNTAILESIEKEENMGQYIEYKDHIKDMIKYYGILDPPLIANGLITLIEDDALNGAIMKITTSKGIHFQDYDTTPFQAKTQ

| SMILES | IC50 [nM] |
| --- | --- |
| CN1Cc2cc(-c3cccc4cc(C(=O)N5CCCC(F)(F)C5)ccc34)ccc2C1=O [compound 54] | < 3 |
| Cc1ccc2cc(C(=O)N3CCC(F)(F)CC3)ccc2c1-c1ccc2c(=O)[nH]ncc2c1 [compound 100] | < 3 |
| C[C@@H]1CCCN(C(=O)c2ccc3c(N4CCc5c(cc[nH]c5=O)C4)cccc3c2)C1 [compound 35] | < 3 |
| CN1CCC2(CCN(c3cccc4cc(C(=O)N5CCCCC5)ccc34)CC2)C1=O [compound 79] | ≥ 10 |
| O=C(c1ccc2c(-c3ccc4c(=O)[nH]ncc4c3)cccc2c1)N1CCCC2CC21 (stereo not drawn) [compound 124] | < 3 |
| O=C(c1ccc2c(-c3ccc4c(c3)CN(CC3CC3)C4=O)cccc2c1)N1CCC(F)(F)CC1 [compound 55] | < 3 |
| O=C(c1ccc2c(N3CCc4c(cc[nH]c4=O)C3)cccc2c1)N1CCC[C@@H](F)C1 [compound 23] | < 3 |
| Cn1nc2cc(-c3cccc4cc(C(=O)N5CCC(F)(F)CC5)ccc34)ccn2c1=O [compound 65] | < 3 |
| Cn1c(=O)[nH]c(=O)c2ccc(-c3cccc4cc(C(=O)N5CCC(F)(F)CC5)ccc34)cc21 [compound 33] | < 3 |
| C[C@@H]1CCN(C(=O)c2ccc3c(N4CCc5ncccc5C4)cccc3c2)C1 [compound 108] | < 3 |
| CN1Cc2cc(-c3cccc4cc(C(=O)N5CCCCC5)ccc34)ccc2C1=O [compound 37] | < 3 |
| O=C(c1cnc2c(-c3cnc4c(=O)[nH]ncc4c3)cccc2c1)N1CCC(F)(F)CC1 [compound 140] | < 3 |
| CN1Cc2cc(-c3nccc4cc(C(=O)N5CCC(F)(F)CC5)ccc34)ccc2C1=O [compound 156] | 3 to 10 |
| O=C(c1cnc2c(-c3cc4cc[nH]c(=O)c4cn3)cccc2c1)N1CCC(F)(F)CC1 [compound 133] | 3 to 10 |
| O=C(c1ccc2c(-c3cnc4c(=O)[nH]ncc4c3)cccc2c1)N1CCC(F)(F)CC1 [compound 57] | < 3 |
| COC(=O)c1ccc(-c2cccc3cc(C(=O)N4CCC(F)(F)CC4)ccc23)cc1F [compound 97] | 3 to 10 |
| COC(=O)CN1Cc2cc(-c3cccc4cc(C(=O)N5CCC(F)(F)CC5)ccc34)ccc2C1=O [compound 44] | < 3 |
| O=C1NCc2cc(-c3cccc4cc(C(=O)N5CCC(F)(F)CC5)ccc34)cnc21 [compound 82] | < 3 |
| O=C(c1ccc2c(-c3ccc4c(=O)[nH]ncc4c3)cccc2c1)N1C[C@H]2CCC[C@H]2C1 [compound 122] | < 3 |
| CN1Cc2cc(-c3cncc4cc(C(=O)N5CCC(F)(F)CC5)ccc34)ccc2C1=O [compound 120] | < 3 |
| O=C(c1ccc2c(-c3ccc4c(c3)CN(CC3CC(F)(F)C3)C4=O)cccc2c1)N1CCC(F)(F)CC1 [compound 40] | 3 to 10 |
| CN1CC2CN(c3cccc4cc(C(=O)N5CCCCC5)ccc34)CCN2C1=O (stereo not drawn) [compound 96] | 3 to 10 |
| CN1Cc2nc(-c3cccc4cc(C(=O)N5CCC(F)(F)CC5)ccc34)ccc2C1=O [compound 32] | < 3 |
| Cn1ncc2cc(-c3cccc4cc(C(=O)N5CCC(F)(F)CC5)ccc34)cnc2c1=O [compound 17] | < 3 |
| Cn1nc2n(c1=O)CCN(c1nccc3cc(C(=O)N4CCC(F)(F)CC4)cc(F)c13)C2 [compound 106] | 3 to 10 |

| SMILES | IC50 [nM] |
| --- | --- |
| Cn1oc2cc(-c3cccc4cc(C(=O)N5CCC(F)(F)CC5)cnc34)ccc2c1=O [compound 148] | 3 to 10 |
| O=C(c1ccc2c(-c3ccc4c(=O)[nH]ccc4c3)cccc2c1)N1CCC(F)(F)CC1 [compound 110] | < 3 |
| C[C@H]1CCCN(C(=O)c2ccc3c(N4CCc5ncccc5C4)cccc3c2)C1 [compound 2] | < 3 |
| Cc1n[nH]c(=O)c2ccc(-c3cccc4cc(C(=O)N5CCC(F)(F)CC5)cnc34)cc12 [compound 165] | < 3 |
| O=C(c1ccc2c(N3CCc4c(cc[nH]c4=O)C3)cccc2c1)N1CCC(F)(F)CC1 [compound 5] | < 3 |
| O=C(c1ccc2ccc(-c3ccc4c(=O)[nH]ccc4c3)cc2c1)N1CCC(F)(F)CC1 [compound 139] | < 3 |
| CN1Cc2cc(-c3cccc4cc(C(=O)N5CCC(F)(F)CC5)ccc34)cnc2C1=O [compound 78] | < 3 |
| Cn1ncc2cc(-c3cccc4cc(C(=O)N5CCC(F)(F)CC5)cnc34)ccc2c1=O [compound 147] | < 3 |
| CN1Cc2cc(-c3cccc4cc(C(=O)N5CCCCC5)cnc34)ccc2C1=O [compound 29] | < 3 |
| O=C(c1ccc2c(N3CCc4ncccc4C3)cccc2c1)N1CCCCC1 [compound 50] | < 3 |
| Cn1ccc2cc(-c3cccc4cc(C(=O)N5CCC(F)(F)CC5)ccc34)ccc2c1=O [compound 116] | < 3 |
| CN1Cc2cc(-c3cccc4cc(C(=O)N5CCCC6CC65)ccc34)cnc2C1=O (stereo not drawn) [compound 151] | < 3 |
| Cn1nc2n(c1=O)CCN(c1cccc3cc(C(=O)N4CCCCC4)ccc13)C2 [compound 74] | < 3 |
| Cn1ccc2c(c1=O)CCN(c1cccc3cc(C(=O)N4CCCCC4)ccc13)C2 [compound 107] | < 3 |
| CC1CN(C(=O)c2ccc3c(-c4ccc5c(=O)[nH]ncc5c4)cccc3c2)CCC1(F)F (stereo not drawn) [compound 119] | < 3 |
| Cn1cnc2cc(-c3cccc4cc(C(=O)N5CCC(F)(F)CC5)ccc34)cnc2c1=O [compound 142] | < 3 |
| C[C@H]1CCCN(C(=O)c2ccc3c(-c4cnc5c(=O)[nH]ccc5c4)cccc3c2)C1 [compound 46] | < 3 |
| O=C(c1cnc2c(-c3cnc4c(=O)[nH]ccc4c3)cccc2c1)N1CCC(F)(F)CC1 [compound 132] | < 3 |
| Cn1nc2n(c1=O)CCN(c1cccc3cc(C(=O)N4CCCC5(CC5)C4)ccc13)C2 [compound 92] | < 3 |
| O=C(O)c1ncc(-c2cccc3cc(C(=O)N4CCC(F)(F)CC4)ccc23)cn1 [compound 127] | < 3 |
| O=C(c1ccc2c(-c3cnc4c(=O)[nH]ccc4c3)cccc2c1)N1CCC(F)(F)CC1 [compound 67] | < 3 |
| O=C(c1ccc2c(-c3ccc4c(=O)[nH]ccc4c3)cccc2c1)N1CCCCC1 [compound 64] | < 3 |
| C[C@@H]1CCCN(C(=O)c2ccc3c(N4CCn5c(nn(C)c5=O)C4)cccc3c2)C1 [compound 34] | < 3 |
| Cc1ccc2cc(C(=O)N3CCC(F)(F)CC3)ccc2c1-c1cnc2c(c1)CN(C)C2=O [compound 16] | 3 to 10 |
| O=C(c1ccc2c(-c3ccc4c(c3)CN(CC3(C(F)(F)F)CC3)C4=O)cccc2c1)N1CCC(F)(F)CC1 [compound 113] | 3 to 10 |

| SMILES | IC50 [nM] |
| --- | --- |
| O=C(c1ccc2c(-c3cc4cc[nH]c(=O)c4cn3)c(F)ccc2c1)N1CCC(F)(F)CC1 [compound 86] | < 3 |
| CCN1Cc2cc(-c3cccc4cc(C(=O)N5CCC(F)(F)CC5)ccc34)ccc2C1=O [compound 66] | < 3 |
| Cc1nc2c(o1)CCN(c1cccc3cc(C(=O)N4CCCCC4)ccc13)C2 [compound 51] | 3 to 10 |
| CN1Cc2cc(-c3coc4cc(C(=O)N5CCCCC5)ccc34)ccc2C1=O [compound 9] | < 3 |
| C[C@H]1CCCN(C(=O)c2ccc3c(-c4cc5cc[nH]c(=O)c5cn4)cccc3c2)C1 [compound 47] | < 3 |
| NCCn1ncc2cc(-c3cccc4cc(C(=O)N5CCC(F)(F)CC5)ccc34)ccc2c1=O [compound 162] | < 3 |
| O=C(c1cnc2c(-c3ccc4c(=O)[nH]ccc4c3)cccc2c1)N1CCC(F)(F)CC1 [compound 134] | < 3 |
| O=C(c1ccc2cc(-c3ccc4c(=O)[nH]ccc4c3)ccc2c1)N1CCC(F)(F)CC1 [compound 89] | ≥ 10 |
| CN1Cc2cc(-c3cccc4cc(C(=O)N5CCC(F)(F)CC5)ccc34)ncc2C1=O [compound 88] | < 3 |
| Cn1nc2n(c1=O)CCN(c1ncc(F)c3cc(C(=O)N4CCC(F)(F)CC4)ccc13)C2 [compound 20] | 3 to 10 |
| O=C(c1ccc2c(N3CCN4C(=O)CCC4C3)cccc2c1)N1CCCCC1 (stereo not drawn) [compound 12] | 3 to 10 |
| CN1Cc2cc(-c3cncc4cc(C(=O)N5CCCCC5)ccc34)ccc2C1=O [compound 69] | < 3 |
| Cc1cc2ncccc2cc1-c1cccc2cc(C(=O)N3CCC(F)(F)CC3)ccc12 [compound 36] | ≥ 10 |
| O=C1NC(=O)N2CCN(c3cccc4cc(C(=O)N5CCCCC5)ccc34)CC12 (stereo not drawn) [compound 7] | ≥ 10 |
| CN1Cc2cc(-c3ccc4ccc(C(=O)N5CCC(F)(F)CC5)cc4c3)ccc2C1=O [compound 138] | < 3 |
| O=C1NCc2cc(-c3cccc4cc(C(=O)N5CCC(F)(F)CC5)ccc34)ncc21 [compound 39] | < 3 |
| Cn1ncc2cc(-c3cccc4cc(C(=O)N5CCC(F)(F)CC5)cnc34)cnc2c1=O [compound 145] | 3 to 10 |
| CC1CCN(C(=O)c2ccc3c(-c4cnc5c(c4)CN(C)C5=O)cccc3c2)CC1 [compound 125] | < 3 |
| O=C(c1ccc2c(-c3ccc4c(=O)[nH]ncc4c3)cccc2c1)N1CCCC1 [compound 80] | < 3 |
| CN1Cc2cc(-c3cccc4cc(C(=O)N5CCC[C@@H](F)C5)ccc34)ccc2C1=O [compound 63] | < 3 |
| Cc1c(-c2cccc3cc(C(=O)N4CCC(F)(F)CC4)ccc23)ccn2c(=O)n(C)nc12 [compound 115] | < 3 |
| Cc1ccc2c(n1)CCN(c1cccc3cc(C(=O)N4CCCCC4)ccc13)C2 [compound 77] | < 3 |
| CN1Cc2cc(-c3c(F)ccc4cc(C(=O)N5CCC(F)(F)CC5)ccc34)ccc2C1=O [compound 59] | < 3 |
| COc1nccc2c1CCN(c1cccc3cc(C(=O)N4CCCCC4)ccc13)C2 [compound 22] | 3 to 10 |
| CNC(=O)c1ccc(-c2cccc3cc(C(=O)N4CCC(F)(F)CC4)ccc23)cc1F [compound 56] | 3 to 10 |
